Measurements reported in patent publication US20230322815A1, “NOVEL COMPOUNDS AND THERAPEUTIC USES THEREOF” (University of Huddersfield, priority 2020, published 2023).
Entries after “also recorded” stand apart in the source; their conditions may differ.

Tests used:
[1] = Dephosphorylation of purified phosphorylated AMPK peptide
Description: Unless otherwise stated, all solvents and materials were purchased from either Sigma Aldrich, Fisher Scientific or Fluorochem and were used without further purification. ^1H, ^13C, DEPT-135 and DEPT-90 NMR data was recorded on either a Bruker Fourier 300 MHz or Bruker Avance III (AVIII) 400 MHz spectrometer or a Bruker Avance Neo 600 MHz NMR spectrometer. Mass spectra were obtained on an Agilent 6210 TOF MS with electrospray ionisation operating in positive ion mode and mass spectra of metal complexes were obtained on a Bruker Micro TOF-q LC mass spectrometer with electrospray ionisation operating in positive ion mode. Phosphorylated ‘SAMS’ peptide HMRSAMS*GLHLVKRR (phosphorylated on the serine residue) was obtained from PeptideSynthetics, Peptide Protein Research Ltd (>95% purity).
There are several potential mechanisms which could lead the observed kinase inhibition ‘readout’ of this screen including, i) direct ATP hydrolysis by the complex(es) and differing Km of the kinases for ATP, and, ii) dephosphorylation of the peptide substrate by the phosphatase activity of the Zn^2+ complex resulting in cycles of peptide phosphorylation by active recombinant enzyme and dephosphorylation by the complex.

[2] = biological target: recombinant Src (p-Y527, p-Y416) (Homo sapiens, UniProt P12931); test: Western blot of purified recombinant kinase after exposure to complex; assay type: biochemical; conditions: 50 μM complex, 4 hours, in the presence of ATP
Chain of recombinant Src (p-Y527, p-Y416) (P12931 whole entry): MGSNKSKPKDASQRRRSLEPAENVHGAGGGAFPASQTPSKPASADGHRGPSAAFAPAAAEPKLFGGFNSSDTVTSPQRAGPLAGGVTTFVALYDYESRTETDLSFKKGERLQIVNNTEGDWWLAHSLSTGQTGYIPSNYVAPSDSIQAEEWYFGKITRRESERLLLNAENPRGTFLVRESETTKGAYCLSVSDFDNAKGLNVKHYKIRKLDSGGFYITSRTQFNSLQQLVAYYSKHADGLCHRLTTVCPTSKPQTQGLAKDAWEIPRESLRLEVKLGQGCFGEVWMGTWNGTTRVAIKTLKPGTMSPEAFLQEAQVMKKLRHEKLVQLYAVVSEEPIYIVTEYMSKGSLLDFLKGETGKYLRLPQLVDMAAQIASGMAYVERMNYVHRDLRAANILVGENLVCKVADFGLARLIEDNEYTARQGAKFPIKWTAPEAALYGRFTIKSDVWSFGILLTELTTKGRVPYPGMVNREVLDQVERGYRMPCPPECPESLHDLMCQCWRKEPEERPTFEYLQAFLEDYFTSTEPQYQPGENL
Description: FIG. 10. Western blot analysis of purified recombinant Src and AMPK following exposure to [L2Zn3]^6+ and [L2Cu3]^6+. Purified enzymes were incubated with complexes (50 μM) for 4 hours in the presence of ATP prior to analysis.
Protein lysates and recombinant proteins were resolved on 15% SDS polyacrylamide gels. Proteins were electroblotted onto nitrocellulose membrane by wet transfer in 1×Tris Glycine buffer (Biorad) at 35 mA overnight at room temperature (Allison et al., 2014). After blocking of membranes, these were incubated with primary antibody overnight at 4° C. before addition of rabbit or mouse secondary antibody (HRP-conjugated) for 1 h at room temperature and development of blots by enhanced chemiluminescence. Primary antibodies were: anti-Src (total) (Cell Signalling Technology #2123 1:1000), anti-phosphorylated Src (Y527) (Cell Signalling Technology #21055 1:1000), anti-phosphorylated Src (Y416) (Cell Signalling Technology #69435 1:1000), anti-AMPKα (total) (Cell Signalling Technology #2532 1:1000), anti-phosphorylated AMPKα (T172) (Cell Signalling Technology […] 1:1000), anti-phospho-Tyr (pan) (Cell Signalling Technology #8954 1:2000), anti-p53 (Santa Cruz, DO-1 clone, 1:1000), anti-β-actin (Merck MAB1501, 1:40,000). Quantification of signals was performed by densitometry using Image J software.
For Src, effects of the complexes on two key regulatory phospho-amino acids were examined, Y527 and Y416 (FIG. 10). […] The decrease in p-Y527 is consistent with the selective phosphatase activity of [L2Zn3]^6+.

[3] = system: HCT116 tumors; test: Chick embryo chorioallantoic membrane (CAM) assay, in ovo efficacy; assay type: in vivo, human tumor cells on chick embryo CAM; conditions: for doses giving statistically significant regression of tumor growth (mean tumor weight at E18): L2Zn3 70.5, 141, 282 μM, L2Cu3 75, 150, 300 μM
Description: FIG. 24. Activity of [L2Cu3]^6+ and [L2Zn3]^6+ against primary HCT116 tumors. The results presented represent the mean tumour weight ±SEM following treatment at 3 different doses of [L2Cu3]^6+ and [L2Zn3]^6+: L2Zn3 [1]=70.5 μM, L2Zn3 [2]=141 μM, L2Zn3 [3]=282 μM; L2Cu3 [1]=75 μM, L2Cu3[2]=150 μM, L2Cu3[3]=300 μM. SoC doxorubicin. Statistical analysis by one way ANOVA (*): 0.05≥p value >0.01; (**): 0.01≥p value >0.001; (***): 0.001≥p value; (****): 0.0001≥p value. Number per experimental group n=12-15.
FIG. 25. Evaluation of the effects of [L2Cu3]^6+ and [L2Zn3]^6+ on primary HCT116 metastasis to the lower CAM. Relative ALU expression (relative to chicken GAPDH) as a quantitive marker of metastasis of human cells to the lower CAM. Relative expression ±SEM. L2Zn3 [1]=70.5 μM, L2Zn3 [2]=141 μM, L2Zn3 [3]=282 μM; L2Cu3 [1]=75 μM, L2Cu3[2]=150 μM, L2Cu3[3]=300 μM. SoC doxorubicin. Number per experimental group n=7-8.
[L2Cu3]^6+ and [L2Zn3]^6+ were evaluated at three different doses for in ovo anti-cancer activity, toxicity and anti-metastatic activity against tumors initiated from three different human cancer cell line models (H460, HT29, HCT116), in the chick embryo chorioallantoic membrane (CAM) assay.
Each compound was provided to the contract research organisation (CRO) Inovotion (La Tronche, France) conducting the in ovo study, as a powder pre-weighed in single vials (2 equivalents of ligand, 3 equivalents of metal; and stored at room temperature). Before use, this was then dissolved in DMSO to 50 mM to generate a stock solution and further freshly diluted in RPM11640 or McCoys aqueous cell culture media for administration.
A standard of care (SoC) drug for the particular tumour type was tested concurrently as a comparative control for in vivo efficacy and toxicity evaluation. […]
On day E18, a 1 cm^2 portion of the lower CAM was collected (n=8 per group), stored at −20° C. and later processed to extract DNA. Samples were analysed for human genomic DNA (qPCR for Alu sequences) as a quantitative marker of tumor metastasis to the lower CAM.

Structure (SMILES) | dephosphorylation of phosphorylated AMPK peptide [1] | detection of p-Y416 [2] | doses giving statistically significant regression of tumor growth (mean tumor weight at E18) [3] | decrease in p-Y527 relative to total Src levels [2] [%] | increase in p-Y416 levels [2] [fold] | HCT116 metastatic load in the lower CAM (qPCR for Alu sequences) ([3]; all three doses, comparable to SoC doxorubicin)
[Cu+2].[Cu+2].[Cu+2].c1ccc(-c2csc(NCCN(CCNc3nc(-c4ccccn4)cs3)CCNc3nc(-c4ccccn4)cs3)n2)nc1.c1ccc(-c2csc(NCCN(CCNc3nc(-c4ccccn4)cs3)CCNc3nc(-c4ccccn4)cs3)n2)nc1 [[L2Cu3]^6+] | neither complex resulted in dephosphorylation | could not be detected | all three tested doses | – | – | –
[Zn+2].[Zn+2].[Zn+2].c1ccc(-c2csc(NCCN(CCNc3nc(-c4ccccn4)cs3)CCNc3nc(-c4ccccn4)cs3)n2)nc1.c1ccc(-c2csc(NCCN(CCNc3nc(-c4ccccn4)cs3)CCNc3nc(-c4ccccn4)cs3)n2)nc1 [[L2Zn3]^6+] | neither complex resulted in dephosphorylation | – | the highest two doses tested | ~30 | ~5 | Decreases in HCT116 metastatic load; also recorded: strong regression tendency
